Measured values published in patent US6673937B2, “Syntheses and methods of use of new antimitotic agents” (The University of Pittsburgh, priority 2000, dated 2004).

How the values were obtained:
tsFT210 cells [1] = test: Flow cytometry, G2/M arrest in tsFT210 cells; format: cell-based, mouse; details: 2.5 to 10 μM, 6 hours after release at 32.0° C.
Experimental: Oncogene 18:6989-6996, Th′ng JP, Wright PS, Hamaguchi J, Lee MG, Norbury CJ, Nurse P and Bradbury EM (1990) The FT210 cell line is a mouse G2 phase mutant with a temperature-sensitive CDC2 gene product. Cell 63:313-324.). Cell proliferation was blocked at G2 phase by incubation at 39.4° C. for 17 h. The synchronized cells were then released by re-incubating at 32.0° C. and treated immediately with 0-10 μM SR-7, 1 μM nocodazole or 100 EM SC-ααδ9, respectively, to probe for G2/M arrest. […] The harvested cells were stained with a solution containing 50 μg/ml propidium iodide and 250 μg/ml RNase A. Flow cytometry analysis was conducted with a Becton Dickinson FACS Star (Franklin Lakes, N.J.). […] This G2/M retention at 4C is probably due to the extended cell cycle blockage at 39.4° C. (Osada H, Cui CB, Onose R and Hanaoka F (1997) Screening of cell cycle inhibitors from microbial metabolites by a bioassay using a mouse cdc2 mutant cell line, tsFT210. Bioorg Med Chem 5:193-203). […] SC-ααδ9 is an inhibitor of the Cdc25 family of phosphatases that controls cell cycle checkpoints (Rice RL, Rusnak JM, Yokokawa F, Yokokawa S, Messner DJ, Boynton AL, Wipf P and Lazo JS (1997) A targeted library of small molecule, tyrosine and dual specificity phosphatase inhibitors derived from a rational core design and random side chain variation. Biochemistry 36:15965-15974).

tsFT210 cells [2] = test: Flow cytometry, G1 transition in tsFT210 cells; format: cell-based, mouse; details: 5 or 10 μM, additional 6 hours
Cdk1 = test: Western blotting for Cdk1 phosphorylation status in tsFT210 cells; format: cell-based, mouse; details: 10 or 20 μM, 6 hours
Experimental: tsFT210 cells were harvested using the same procedure for cell synchronizing and drug exposure as described above for the G2/M flow cytometric analysis. The protein lysates were analyzed by Western blotting for Cdk1 as described previously (Tamura K, Southwick EC, Kerns J, Rosi K, Carr BI, Wilcox C and Lazo JS (2000) Cdc25 inhibition and cell cycle arrest by a synthetic thioalkyl vitamin K analogue. Cancer Res 60:1317-1325.). The inventors used Cdk1 isolated from human MCF-7 cells to assay for in vitro inhibition of enzyme activity because of available antibodies and convenience. Asynchronous cells grown at 37° C. in 5% CO2 in DMEM containing 10% fetal bovine serum were treated with lysis buffer and harvested as previously described (Vogt A, Wang AS, Johnson CS, Fabisiak JP, Wipf P and Lazo JS (2000) In vivo antitumor activity and induction of insulin-like growth factor-1 resistant apoptosis by SC-ααδ9. J Pharmacol Exptl Therap 292:530-537.). Cdk1 kinase activity assay was performed as previously described (Yu L, Orlandi L, Wang P, Orr MS, Senderowicz AM, Sausville EA, Silvestrini R, Watanabe N, Piwnica-Worms H, O° Connor PM (1998) UCN-01 arogates G2 arrest through a Cdc2-dependent pathway that is associated with inactivation of the WeelHu kinase and activation of the Cdc25C phosphatase. J Biol Chem 273: 33455-33464.). […] Histone H1 was separated from other proteins by SDS-PAGE and analyzed for incorporation of radioactive phosphate with a Molecular Dynamics STORM 860 Phospholmager (Sunnyvale, CA).
The major controlling molecule for G2/M transition is the cyclin dependent kinase, Cdk1, whose cellular activity is tightly regulated by phosphorylation (Pines J (1999) Four-dimensional control of the cell cycle. Nature Cell Biol 1:E73-79., Hunter T and Pines J (1994) Cyclins and cancer II: cyclin D and CDK inhibitors come of age. Cell 79:573-582). […] The protein lysates were analyzed by Western blotting for Cdk1 content and phosphorylation status as described elsewhere herein. […]

PTPIB = molecular target: T1, PTPIB (Homo sapiens, UniProt P18031); test: In vitro inhibition of PTPIB; format: biochemical; details: 30 μM, data not shown
T1 sequence (P18031 1-435): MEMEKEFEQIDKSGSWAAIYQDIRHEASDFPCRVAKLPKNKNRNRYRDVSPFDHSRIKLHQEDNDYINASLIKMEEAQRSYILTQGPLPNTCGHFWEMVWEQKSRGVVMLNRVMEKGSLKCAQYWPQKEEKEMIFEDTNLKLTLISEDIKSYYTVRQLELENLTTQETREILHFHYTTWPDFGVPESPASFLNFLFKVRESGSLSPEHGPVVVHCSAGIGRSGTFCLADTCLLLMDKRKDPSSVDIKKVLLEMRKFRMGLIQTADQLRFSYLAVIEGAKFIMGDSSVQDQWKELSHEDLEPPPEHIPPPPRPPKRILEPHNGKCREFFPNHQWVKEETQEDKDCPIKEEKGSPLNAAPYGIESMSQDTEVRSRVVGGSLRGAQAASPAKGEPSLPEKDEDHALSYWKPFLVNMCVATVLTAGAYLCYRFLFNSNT

With O=C1C=CC2(Oc3cccc4cccc(c34)O2)c2cccc(OCc3ccco3)c21 [SR-7, 8-(furan-2-ylmethoxy)-1-oxo-1,4-dihydronaphthalene-4-spiro-2′-naphto [1″,8″-de][1′,3′] dioxin] the “G2/M cell cycle transition” value (tsFT210 cells [1]) was “concentration-dependent arrest in the G2/M phase”, the “G2/M cell cycle transition” value (tsFT210 cells [1]; listed as 27) was “can arrest mammalian cells in the G2/M phase” and the G1 transition (tsFT210 cells [2]) was “not delayed at G1”. For the same compound, the Cdk1 phosphorylation status (Cdk1) was “Cdk1 was completely dephosphorylated” and the “inhibition of PTPIB activity” value (PTPIB) was “no inhibition”.
